Experimental data taken from US7781439B2, “Pyrazolopyrimidines” (Bayer CropScience AG, priority 2005, dated 2010).
Read-outs that look alike come from different tables or passages of the source. Marks after values point to notes of the source that are not given here. Blank lines part the entries; values can stand above or below the compound they belong to.

How the values were obtained:
HeLa cells = assay: LIVE/DEAD cytotoxicity assay, inhibition of cell proliferation, HeLa; type: cell-based, human; settings: for GI50: Homo sapiens, read-out: log GI50 values (M), HeLa cells (converted)
Procedure: (§1) Compounds of the present invention were tested for a possible cytotoxic or proliferation-inhibiting activity on the human tumour cell lines HeLa, SW620 and A375 (all from ATCC, American Type Culture Collection). To this end, the cells were plated in microtitre plates from Greiner (manufacturer No. 781092) at a cell density of 1000 cells/microtitre plate well and cultivated in cell culture medium at 37° C. under a 5% carbon dioxide atmosphere. Cell culture media and additives were purchased from Invitrogen and the foetal calf serum from Biochrom. The cell culture media for HeLa and A375 cells were used as stated by ATCC (HeLa: MEM, order No. 10370-047, with 1% sodium bicarbonate, 1% non-essential amino acids, 1% sodium pyruvate, 10% foetal calf serum, 0.1% gentamycin; A375: DMEM, order No. 41965-039, 2% sodium bicarbonate, 1% L-Glutamax, 10% foetal calf serum, 0.1% gentamycin). The culture medium for the SW620 cells consisted of DMEM, order No. 41965-039, 1% non-essential amino acids, 10% foetal calf serum, 0.1% gentamycin.
(§2) 24 hours after the cells had been plated in the microtitre plates, various concentrations of at most 100 μM down to a minimum concentration of 5 nM of the test compounds were added to the cells. Stock solutions of the test compounds (10 mM) were prepared in DMSO and stored at −20° C. For the cytotoxicity tests, the test compounds were diluted in the appropriate cell culture medium.
(§3) After a further 48 hours of incubation, the cells were washed with medium and analysed with the aid of a two-colour fluorescence cytotoxicity/viability test (LIVE/DEAD Viability/Cytotoxicity ASSAY Kit from Molecular Probes, order No. L-3224), according to the instructions of the manufacturer. To this end, the medium was aspirated and in each case 30 μl of LIVE/DEAD reagent per microtitre plate well were added to the cells, which were then incubated for 30 minutes. The cells were then washed with PBS (phosphate-buffered saline). The number of live cells was analysed by measuring the green fluorescence of the live dye calcein-AM as a component of the LIVE/DEAD reagent using a fluorescence plate reader (Flexstation, from Molecular Devices) at an excitation wavelength of 485 nm and an emission wavelength of 525 nm (Oral et al. 1998). Cells only with cell culture medium, without added test compounds, were treated in parallel and analysed as growth controls. The reference compounds used for anti-tumour agents having a cytotoxic or proliferation-inhibiting action were colchicine (from Merck/Calbiochem, order No 234115) and Taxol (baccatin III N-benzyl-b-phenylisoserine ester, from Merck/Calbiochem, order No. 580555) (Schiff and Horwitz 1980; Holmes et al., 1991). The cytotoxic effects of the test compounds were expressed as logarithmic GI50 values ((growth)-inhibiting logarithmic concentration value at which a cell growth reduced by 50% compared to the control without test compounds was measured; Xia et al., 2001; Smith et al., 2005).

log P determination = type: physicochemical
A375 cells = assay: LIVE/DEAD cytotoxicity assay, inhibition of cell proliferation, A375; type: cell-based, human; settings: for GI50: Homo sapiens, read-out: log GI50 values (M), A375 cells (converted)
Procedure: as §1, §2, §3

SW620 cells = assay: LIVE/DEAD cytotoxicity assay, inhibition of cell proliferation, SW620; type: cell-based, human; settings: for GI50: Homo sapiens, read-out: log GI50 values (M), SW620 cells (converted)
Procedure: as §1, §2, §3

[1] = HeLa cells, 48 hours incubation, calcein-AM fluorescence
[2] = values marked *, no footnote carries the single asterisk, general footnote: HPLC gradient method, acetonitrile/0.1% aqueous phosphoric acid
[3] = A375 cells, 48 hours incubation, calcein-AM fluorescence
[4] = SW620 cells, 48 hours incubation, calcein-AM fluorescence
[5] = EEC Directive 79/831 Annex V. A8 by HPLC (gradient method, acetonitrile/0.1% aqueous phosphoric acid)

Compound: C[C@H](Nc1c(-c2c(F)cc(F)cc2Cl)c(Cl)nc2c(C(=O)NS(C)(=O)=O)cnn12)C(F)(F)F [Example 117]
log GI50 values (M), HeLa cells (HeLa cells; [1]): 6.8 M | log p (log P determination; [2]): 3.56* | log GI50 values (M), A375 cells (A375 cells; [3]): 6.6 M | log GI50 values (M), SW620 cells (SW620 cells; [4]): 6.6 M

Compound: CC(=O)O[C@H]1C(=O)[C@@]2(C)[C@H]([C@H](OC(=O)c3ccccc3)[C@]3(O)C[C@H](OC(=O)[C@H](O)[C@@H](NC(=O)c4ccccc4)c4ccccc4)C(C)=C1C3(C)C)[C@]1(OC(C)=O)CO[C@@H]1C[C@@H]2O [Taxol, reference compound]
GI50 (HeLa cells; [1]): 1.58e-08 M | GI50 (A375 cells; A-375, A375 cells, 48 hours incubation, calcein-AM fluorescence): 2e-07 M | GI50 (SW620 cells; SW-620, SW620 cells, 48 hours incubation, calcein-AM fluorescence): 1.26e-07 M

Compound: COc1cc2c(c(OC)c1OC)-c1ccc(OC)c(=O)cc1[C@@H](NC(C)=O)CC2 [colchicine, reference compound]
GI50 (HeLa cells; HeLa, 48 h): 1.58e-08 M | GI50 (A375 cells; A-375, 48 h): 2e-08 M | GI50 (SW620 cells; SW-620, 48 h): 3.16e-08 M

Compound: CC(Nc1c(-c2ccc(F)cc2Cl)c(Cl)nc2c(C(=O)Nc3ccn(C)n3)cnn12)C(C)(C)C (centres unmarked) [compound 1185]
log p (log P determination; [5]): 4.69

Compound: CC(Nc1c(-c2ccc(F)cc2Cl)c(Cl)nc2c(C(=O)Nc3cnn(C)c3)cnn12)C(C)(C)C (centres unmarked) [compound 1187]
log p (log P determination; [5]): 4.26

Compound: CC(Nc1c(-c2ccc(F)cc2Cl)c(Cl)nc2c(C(=O)Nc3ncn(C)n3)cnn12)C(C)(C)C (centres unmarked) [compound 1191]
log p (log P determination; [5]): 3.91

Compound: CC1CCN(c2c(-c3ccc(F)cc3Cl)c(Cl)nc3c(C(=O)Nc4ncn(C)n4)cnn23)CC1 [compound 1192]
log p (log P determination; [5]): 3.89

Compound: CC1CCN(c2c(-c3ccc(F)cc3Cl)c(Cl)nc3c(C(=O)Nc4ccnn4C)cnn23)CC1 [compound 1193]
log p (log P determination; [5]): 4.47

Compound: CC1CCN(c2c(-c3ccc(F)cc3Cl)c(Cl)nc3c(C(=O)Nc4ccn(C)n4)cnn23)CC1 [compound 1195]
log p (log P determination; [5]): 4.66

Compound: CC1CCN(c2c(-c3ccc(F)cc3Cl)c(Cl)nc3c(C(=O)Nc4cnn(C)c4)cnn23)CC1 [compound 1196]
log p (log P determination; [5]): 4.31

Compound: CC1CCN(c2c(-c3ccc(F)cc3Cl)c(Cl)nc3c(C(=O)Nc4ncn[nH]4)cnn23)CC1 [compound 1197]
log p (log P determination; [5]): 4.11

Compound: COC(=O)c1cn[nH]c1N [methyl 5-amino-1H-pyrazole-4-carboxylate]
log p (log P determination; HPLC (gradient method), starting materials and intermediates, log P / log P*, read-out: log P): -0.07

Second part, led by results:

log p (log P determination; [2]): 3.85*
Compound: CC(C)[C@@H](C)Nc1c(-c2c(F)cc(F)cc2F)c(Cl)nc2c(C(=O)NS(C)(=O)=O)cnn12 [Example 177]
log GI50 values (M), HeLa cells (HeLa cells; [1]): >8 M | log GI50 values (M), A375 cells (A375 cells; [3]): 8.1 M | log GI50 values (M), SW620 cells (SW620 cells; [4]): 6.7 M

log p (log P determination; values marked *, HPLC, gradient method, acetonitrile/0.1% aqueous phosphoric acid, EEC Directive 79/831 Annex V. A8): 3.24*
Compound: CC(C)Nc1c(-c2c(F)cc(F)cc2F)c(Cl)nc2c(C(=O)NS(C)(=O)=O)cnn12 [Example 345]
log GI50 values (M), HeLa cells (HeLa cells; [1]): 6.6 M | log GI50 values (M), A375 cells (A375 cells; [3]): 6.3 M | log GI50 values (M), SW620 cells (SW620 cells; [4]): 6.4 M

log p (log P determination; [5]): 4.18
Compound: CC(C)C(C)Nc1c(-c2ccc(F)cc2Cl)c(Cl)nc2c(C(=O)Nc3ccnn3C)cnn12 (centres unmarked) [compound 1186]

log p (log P determination; [5]): 3.62
Compound: CC(C)C(C)Nc1c(-c2ccc(F)cc2Cl)c(Cl)nc2c(C(=O)Nc3ncn(C)n3)cnn12 (centres unmarked) [compound 1188]

log p (log P determination; [5]): 3.95
Compound: CC(C)C(C)Nc1c(-c2ccc(F)cc2Cl)c(Cl)nc2c(C(=O)Nc3cnn(C)c3)cnn12 (centres unmarked) [compound 1189]

log p (log P determination; [5]): 3.87
Compound: CC(C)C(C)Nc1c(-c2ccc(F)cc2F)c(Cl)nc2c(C(=O)NS(C)(=O)=O)cnn12 (centres unmarked) [compound 1190]

log p (log P determination; [5]): 4.76
Compound: Cc1ccc(-c2c(Cl)nc3c(C(=O)NS(C)(=O)=O)cnn3c2NC(C)C(C)(C)C)c(Cl)c1 (centres unmarked) [compound 1194]
